Measurements reported in patent US9505728B2, “Triazolone compounds and uses thereof” (INCEPTION 2, INC., priority 2012, dated 2016).
Like-named read-outs stand apart in the source and are kept apart here.

Legend:
Thyroid Receptor β = target: T1, Thyroid Receptor β (Homo sapiens, UniProt P10828); test: Target selectivity counterscreen, Thyroid Receptor β reporter assay; format: cell-based; settings: receptor agonist at ~EC80
T1 construct: host or cells: engineered reporter cells of the kit
T1 sequence (P10828 1-461): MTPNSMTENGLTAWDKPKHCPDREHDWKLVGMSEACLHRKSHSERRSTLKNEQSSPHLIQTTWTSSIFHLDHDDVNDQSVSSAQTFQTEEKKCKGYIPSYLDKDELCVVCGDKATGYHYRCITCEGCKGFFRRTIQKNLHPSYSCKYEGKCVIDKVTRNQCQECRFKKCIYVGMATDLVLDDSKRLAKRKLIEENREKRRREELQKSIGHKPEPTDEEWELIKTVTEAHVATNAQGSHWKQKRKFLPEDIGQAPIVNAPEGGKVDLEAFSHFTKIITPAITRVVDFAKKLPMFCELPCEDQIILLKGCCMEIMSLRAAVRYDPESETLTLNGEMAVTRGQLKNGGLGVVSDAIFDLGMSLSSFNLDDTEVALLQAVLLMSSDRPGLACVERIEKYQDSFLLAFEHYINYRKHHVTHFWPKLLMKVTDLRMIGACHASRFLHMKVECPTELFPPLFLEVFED
Description: (§1) Target Selectivity Assays
(§2) To determine species selectivity, a Mouse PPARα Reporter Assay System was used (Indigo Biosciences, Cat. #M00111). Activity of test compounds to antagonize or agonize other isoforms of human PPAR, for example β/δ and γ, were assessed using the corresponding kits from Indigo Biosciences (Cat. #IB00121 and #IB00101, respectively). In addition to PPAR activity, compounds were also screened for activity against other nuclear hormone receptors including Estrogen Receptor β, Glucocorticoid Receptor and Thyroid Receptor β using commercially available kits (Indigo Biosciences, Cat. #IB00411, IB00201 and IB01101, respectively). Each assay system from Indigo Biosciences uses technology analogous to the human PPARα kit, with the variance being that the cells used for each assay were engineered to over-express the receptor of interest. In addition, the appropriate receptor agonist (included with each kit) was used at ˜EC80 for assays in which antagonist potency was being assessed.

Human PPARα = target: T2, Human PPARα (Homo sapiens, UniProt Q07869); test: Human PPARα Reporter Assay (luciferase); format: cell-based
T2 construct: host or cells: proprietary non-human mammalian cells
T2 sequence (Q07869 1-468): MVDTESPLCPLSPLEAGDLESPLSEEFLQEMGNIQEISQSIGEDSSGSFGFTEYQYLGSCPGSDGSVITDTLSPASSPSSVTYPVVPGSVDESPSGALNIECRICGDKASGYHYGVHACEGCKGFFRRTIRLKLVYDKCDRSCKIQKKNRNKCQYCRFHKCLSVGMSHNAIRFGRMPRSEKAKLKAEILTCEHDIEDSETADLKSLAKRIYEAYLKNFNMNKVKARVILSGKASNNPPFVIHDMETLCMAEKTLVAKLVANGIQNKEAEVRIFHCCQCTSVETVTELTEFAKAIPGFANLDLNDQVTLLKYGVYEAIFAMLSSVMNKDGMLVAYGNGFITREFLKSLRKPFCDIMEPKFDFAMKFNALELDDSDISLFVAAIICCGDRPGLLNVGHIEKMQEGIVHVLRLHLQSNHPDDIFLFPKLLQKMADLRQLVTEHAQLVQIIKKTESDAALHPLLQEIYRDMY
Summary of the method: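 Non-human mammalian cells constitutively expressing human PPARα with a PPARα-responsive luciferase reporter were dosed with compounds right after plating. After overnight incubation, media removed and detection reagent added; luminescence taken as proportional to PPARα activation, agonist or antagonist mode.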

B16F10 melanoma cells = test: In vivo cancer model: B16F10 model of pulmonary metastasis; design: species or system C57BL6 mice; settings: intraperitoneal doses at 0.3, 3 and 30 mg/kg, daily, day 21, FIG. 1
Description: In Vivo Cancer Model: B16F10 Model of Pulmonary Metastasis
B16F10 cells were cultured in standard growth media, harvested when approximately 50% confluent and injected into C57BL6 mice via the tail vein (50,000 cells per mouse in 200 μL). Mice were then treated daily with test compound. On day 21, mice were euthanized. Lungs were harvested and placed into Fekete's solution overnight to facilitate visualization of the tumors. Black nodules were enumerated.
Statistics were performed by ANOVA with Dunnett's Multiple Comparison Test post-hoc to determine statistical differences from vehicle treatment group (* denotes P<0.05 while *** denotes P<0.001).

Estrogen Receptor β = target: T3, Estrogen Receptor β (Homo sapiens, UniProt Q92731); test: Target selectivity counterscreen, Estrogen Receptor β reporter assay; format: cell-based; settings: receptor agonist at ~EC80
T3 construct: host or cells: engineered reporter cells of the kit
T3 sequence (Q92731 whole entry): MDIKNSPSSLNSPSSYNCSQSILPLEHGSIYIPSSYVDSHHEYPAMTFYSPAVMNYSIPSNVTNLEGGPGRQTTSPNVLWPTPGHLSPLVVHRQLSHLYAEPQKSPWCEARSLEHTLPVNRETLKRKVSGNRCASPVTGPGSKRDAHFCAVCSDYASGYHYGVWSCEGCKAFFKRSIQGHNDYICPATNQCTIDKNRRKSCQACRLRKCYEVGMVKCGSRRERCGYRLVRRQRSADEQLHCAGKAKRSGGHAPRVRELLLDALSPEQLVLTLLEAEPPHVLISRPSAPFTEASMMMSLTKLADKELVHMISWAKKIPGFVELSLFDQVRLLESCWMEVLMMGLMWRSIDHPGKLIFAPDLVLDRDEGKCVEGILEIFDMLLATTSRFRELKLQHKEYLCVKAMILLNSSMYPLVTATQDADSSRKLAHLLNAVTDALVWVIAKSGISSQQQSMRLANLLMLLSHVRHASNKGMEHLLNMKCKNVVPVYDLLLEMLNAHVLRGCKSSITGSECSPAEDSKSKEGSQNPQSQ
Description: as §1, §2

PPAR beta/delta = target: T4, PPAR beta/delta (Homo sapiens, UniProt Q03181); test: Target selectivity counterscreen, PPAR β/δ reporter assay; format: cell-based; settings: receptor agonist at ~EC80
T4 construct: host or cells: engineered reporter cells of the kit
T4 sequence (Q03181 1-441): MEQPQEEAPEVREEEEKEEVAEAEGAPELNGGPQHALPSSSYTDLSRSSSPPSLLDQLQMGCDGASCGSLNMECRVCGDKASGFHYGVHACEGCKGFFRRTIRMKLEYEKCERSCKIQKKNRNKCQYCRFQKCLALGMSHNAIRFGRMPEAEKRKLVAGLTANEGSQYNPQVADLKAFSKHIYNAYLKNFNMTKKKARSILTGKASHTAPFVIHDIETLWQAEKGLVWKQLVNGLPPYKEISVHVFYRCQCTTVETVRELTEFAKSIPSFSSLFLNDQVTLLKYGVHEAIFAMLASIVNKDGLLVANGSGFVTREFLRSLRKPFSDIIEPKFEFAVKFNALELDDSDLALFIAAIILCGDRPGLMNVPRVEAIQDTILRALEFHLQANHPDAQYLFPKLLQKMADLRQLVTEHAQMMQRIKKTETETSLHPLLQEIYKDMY
Description: as §1, §2

SMILES: CCn1c(CCCc2ccc(-c3ccc(NS(=O)(=O)c4ccccc4)cn3)cc2)nn(Cc2ccc(C(C)(C)C)cc2)c1=O [Example 10, N-(6-(4-(3-(1-(4-(tert-Butyl)benzyl)-4-ethyl-5-oxo-4,5-dihydro-1H-1,2,4-triazol-3-yl)propyl)phenyl)pyridin-3-yl)benzenesulfonamide]
- IC50 (Thyroid Receptor β): > 10000 nM
- IC50 (Human PPARα; counterscreen table, antagonist potency, read-out: PPAR alpha IC50): 67 nM
- IC50 (Human PPARα; human PPARα reporter cells, overnight incubation, antagonism, read-out: Luciferase IC50): 67 nM
- metastasis of B16F10 melanoma cells to the lung (black nodules enumerated) (B16F10 melanoma cells): inhibition of metastasis
- IC50 (Estrogen Receptor β): 11400 nM
- IC50 (PPAR beta/delta): 2600 nM
